Results taken from patent US20230227453A1 (priority 2020, published 2023).

Assays:
5HT2A sensor [1] = type: cell-based
5HT2A sensor [2] = type: cell-based; remark: listed apart in the source
C57BL/6J Mice = assay: Head twitch response (HTR) experiments; type: in vivo, mouse
Experimental: Head twitch response (HTR) experiments. All HTR experiments were performed by Transpharmation Ltd, London, UK. C57BL/6J Mice (9-10 weeks old) were obtained and housed following an IACUC approved protocol. The mice were habituated in the test cage for at least 30 min, injected intraperitoneally with compound (injection volume 5 ml/kg), returned to the empty test cage, and filmed for 20 minutes. Each video is scored for the number of head-twitches by a trained observer blinded to treatment condition.

5-HT2A [3] = target: T1, 5-HT2A (Homo sapiens, UniProt P28223); assay: Serotonin 5-HT2A in vitro cellular IPOne agonism assay; type: cell-based; design: host or cells: CHO-K1; conditions: CHO-K1 cells, IPOne HTRF, 60 min
T1 sequence (P28223 whole entry): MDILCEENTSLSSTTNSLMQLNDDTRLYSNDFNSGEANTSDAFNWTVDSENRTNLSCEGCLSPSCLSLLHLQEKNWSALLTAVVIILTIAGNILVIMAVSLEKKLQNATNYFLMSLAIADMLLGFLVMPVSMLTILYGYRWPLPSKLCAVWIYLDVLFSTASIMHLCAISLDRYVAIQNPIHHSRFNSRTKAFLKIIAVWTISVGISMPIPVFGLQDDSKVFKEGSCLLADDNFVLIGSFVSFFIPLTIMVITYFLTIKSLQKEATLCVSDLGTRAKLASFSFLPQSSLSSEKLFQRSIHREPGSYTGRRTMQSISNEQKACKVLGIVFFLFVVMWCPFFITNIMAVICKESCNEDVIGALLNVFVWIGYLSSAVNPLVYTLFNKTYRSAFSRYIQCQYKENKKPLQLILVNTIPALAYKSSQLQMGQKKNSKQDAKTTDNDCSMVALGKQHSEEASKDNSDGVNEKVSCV
Experimental: Serotonin 5-HT2A In Vitro Cellular IPOne Agonism Assay. The 5-HT2A IPOne HTRF assay was performed at Epics Therapeutics S.A. (Belgium, FAST-0505I) using conventional methods. Briefly, CHO-K1 cells expressing human recombinant 5-HT2A receptor grown to mid-log phase in culture media without antibiotics were detached with PBS-EDTA, centrifuged, and resuspended in medium without antibiotics buffer. 20,000 cells are distributed in a 96 well plate and incubated overnight at 37° C. with 5% CO2.
For agonist testing, the medium is removed and 20 μl of assay buffer plus 20 μl of test compound or reference agonist are added in each well. The plate is incubated for 60 min. at 37° C. with 5% CO2.
After addition of the lysis buffer containing IP1-d2 and anti-IP1 cryptate detection reagents, plates are incubated 1-hour at room temperature, and fluorescence ratios are measured according to the manufacturer specification, with the HTRF kit.

rat cortical neurons = assay: Neurite Outgrowth Assay (Procedure B); type: cell-based; design: key: A: Statistically significant mean increase as a percent of DMSO control at 10 μM or less; B: No statistically significant mean increase as a percent of DMSO control at 10 μM or less; conditions: primary rat neuronal cultures, 72h, vs DMSO control, 10 μM or less
Experimental: Neurite Outgrowth Assay (Procedure B). Pregnant Wistar rats (Janvier; France) were used for the study. They were delivered 6 days before their use. Upon arrival at Neurofit animal facility, they were housed one per cage and maintained in a room with controlled temperature (21-22° C.) and a reversed light-dark cycle (12h/12h; lights on: 17:30-05:30; lights off: 05:30-17:30) with food and water available ad libitum.
Female Wistar rats of 17 days gestation were killed by cervical dislocation and the fetuses were removed from the uterus. Their brains were placed in ice-cold medium of Leibovitz (L15, Gibco, Fisher bioblock, France). Cortices were dissected and meninges were carefully removed. The cortical neurons were dissociated by trypsinization for 30 min at 37° C. (trypsin-EDTA, Gibco) in presence of 0.1 mg/ml DNAse I (Roche, France). The reaction was stopped by addition of Dulbecco's Modified Eagle Medium (DMEM; Gibco) with 10% of fetal bovine serum (FBS; Gibco). The suspension was triturated with a 10-ml pipette and using a needle syringe 21G and centrifuged at 350×g for 10 min at room temperature. The pellet of dissociated cells was resuspended in a medium consisting of Neurobasal (Gibco) supplemented with 2% B27 supplement (Gibco), 0.5 mM L-Glutamine (Gibco), an antibiotic-antimicotic mixture. Viable cells were counted in a Neubauer cytometer using the trypan blue exclusion test (Sigma). Cells were seeded at a density of 10000 cells per well in 96-well plate (Costar) precoated with poly-L-lysine. Test compound at different concentrations were added to the cultures. Donepezil (positive control) was tested at 250 nM.
After 72h (3 days) of plating, cultures were fixed with paraformaldehyde in PBS (4%, Sigma) for 30 min at 4° C. Then, cells were successively permeabilized with 0.1% Triton X100 for 30 min, saturated with PBS containing 3% of BSA and were incubated 1 h with anti-beta III tubulin antibody (Sigma) at 1/10 000 in PBS containing 0.5% of BSA. Cells were washed three times with PBS containing 0.5% of BSA, and they were incubated 1 h with goat anti-mouse antibody coupled with AF488 (Invitrogen A11001) diluted at 1/1000 in PBS containing 0.5% of BSA. Finally, nuclei were staining with DAPI 1 mg/ml at 1/1000 in PBS containing 0.5% of BSA. After rinsing with PBS, the plate was filmed and neurite networks were examined and analyzed using High-Content Screening (Celllnsight, Thermo Scientific). The average number of neurites per neuron and the average total length of neurites per neuron were the main parameters analyzed. Analysis of data was performed using analysis of variance (ANOVA). The Fisher's Protected Least Significant Difference test was used for multiple comparisons. A p value≤0.05 was considered significant. The software used is StatView 5.0 from SAS Institut.

5-HT2A [4] = target: T1, 5-HT2A; assay: Serotonin 5-HT2A in vitro radioligand binding competition assay; design: purchased Epics Therapeutics S.A. (Belgium) FAST-0505B; host or cells: membrane extracts; conditions: radiotracer [3H]-DOI, membrane extracts
Experimental: Serotonin 5-HT2A In Vitro Radioligand Binding Competition Assay. The 5-HT2A radioligand binding competition assay was performed at Epics Therapeutics S.A. (Belgium, FAST-0505B) using conventional methods. Briefly, competition binding is performed in duplicate in the wells of a 96 well plate (Master Block, Greiner, 786201) containing binding buffer (optimized for each receptor), membrane extracts (amount of protein/well optimized for each receptor), radiotracer [^3H]-DOI (final concentration optimized for each receptor) and test compound. Nonspecific binding is determined by co-incubation with 200-fold excess of cold competitor. The samples are incubated in a final volume of 0.1 ml at a temperature and for a duration optimized for each receptor and then filtered over filter plates. Filters are washed six times with 0.5 ml of ice-cold washing buffer (optimized for each receptor) and 50 μl of Microscint 20 (Packard) are added in each well. The plates are incubated 15 min on an orbital shaker and then counted with a TopCount™ for 1 min/well.

COc1cc(CC(C)N)c(OC)cc1I (stereo not drawn) [DOI]
activation of the 5HT2A sensor assay (5HT2A sensor [1]): activate the 5HT2A sensor assay in agonist mode

CN(C)CCc1c[nH]c2ccccc12 [DMT, N,N-dimethyltryptamine]
activation of the 5HT2A sensor assay (5HT2A sensor [1]): activate the 5HT2A sensor assay in agonist mode

CCN(CC)CCc1c[nH]c2cc(F)ccc12 [Example 6-F-DET]
activation of the 5HT2A sensor assay (5HT2A sensor [1]): do not activate the 5HT2A sensor assay in agonist mode | competition with 5-HT in the 5HT2A sensor assay (5HT2A sensor [2]): compete with 5HT binding to 5HT2A

CCN(CC)C(=O)[C@@H]1C=C2c3cccc4[nH]cc(c34)C[C@H]2N(C)C1 [LSD]
activation of the 5HT2A sensor assay (5HT2A sensor [1]): activate the 5HT2A sensor assay in agonist mode

COc1ccc2c3c([nH]c2n1)CCN(C)CC3 [Example 1, 2-methoxy-7-methyl-5,6,7,8,9,10-hexahydropyrido[3′,2′:4,5]pyrrolo[2,3-d]azepine]
Number of head twitches (C57BL/6J Mice; intraperitoneal, 10 mg/kg, filmed for 20 minutes): A (10 head twitches or less at 10 mg/kg) | EC50 (5-HT2A [3]): 101 to 1000 nM | Increase in Neurite Length (rat cortical neurons): A | Increase in Neurite Number (rat cortical neurons): A | IC50 (5-HT2A [4]): 1000 to 10000 nM

COc1ccc2c(CCN(C)C)c[nH]c2c1 [Example 6-MeO-DMT]
head-twitch response (HTR) (C57BL/6J Mice): does not produce a HTR | activation of the 5HT2A sensor assay (5HT2A sensor [1]): do not activate the 5HT2A sensor assay in agonist mode | competition with 5-HT in the 5HT2A sensor assay (5HT2A sensor [2]): compete off 5-HT

O=C(c1ccc(F)cc1)C1CCN(CCn2c(=O)[nH]c3ccccc3c2=O)CC1 [Ketanserin]
activation of the 5HT2A sensor assay (5HT2A sensor [1]): do not activate the 5HT2A sensor assay in agonist mode | competition with 5-HT in the 5HT2A sensor assay (5HT2A sensor [2]): compete with 5HT binding to 5HT2A

CN[C@H](C)Cc1ccc2c(c1)OCO2 [R-MDMA]
activation of the 5HT2A sensor assay (5HT2A sensor [1]): do not activate the 5HT2A sensor assay in agonist mode

CNC(C)Cc1ccc2c(c1)OCO2 [L-MDMA]
activation of the 5HT2A sensor assay (5HT2A sensor [1]): do not activate the 5HT2A sensor assay in agonist mode

COc1ccc2c3c(n(C)c2n1)CCNCC3 [Example 5, 2-methoxy-10-methyl-5,6,7,8,9,10-hexahydropyrido[3′,2′:4,5]pyrrolo[2,3-d]azepine]
EC50 (5-HT2A [3]): 10 to 100 nM | Increase in Neurite Length (rat cortical neurons): B | Increase in Neurite Number (rat cortical neurons): B | IC50 (5-HT2A [4]): 101 to 1000 nM

CCN(CC)C(=O)[C@@H]1C=C2c3cccc4[nH]c(Br)c(c34)C[C@H]2N(C)C1 [BOL148]
activation of the 5HT2A sensor assay (5HT2A sensor [1]): do not activate the 5HT2A sensor assay in agonist mode | competition with 5-HT in the 5HT2A sensor assay (5HT2A sensor [2]): compete with 5HT binding to 5HT2A

Cc1ccc2c3c(n(C)c2n1)CCN(C)CC3 [Example 12, 2,7,10-trimethyl-5,6,7,8,9,10-hexahydropyrido[3′,2′:4,5]pyrrolo[2,3-d]azepine]
EC50 (5-HT2A [3]): 101 to 1000 nM | Increase in Neurite Length (rat cortical neurons): B | Increase in Neurite Number (rat cortical neurons): B | IC50 (5-HT2A [4]): 1000 to 10000 nM

COc1ccc2c3c(n(C)c2n1)CCN(C)CC3 [Example 3, 2-methoxy-7,10-dimethyl-5,6,7,8,9,10-hexahydropyrido[3′,2′:4,5]pyrrolo[2,3-d]azepine]
EC50 (5-HT2A [3]): 101 to 1000 nM | Increase in Neurite Length (rat cortical neurons): B | Increase in Neurite Number (rat cortical neurons): B | IC50 (5-HT2A [4]): 1000 to 10000 nM

COc1ccc2[nH]cc(CCN(C)C)c2c1 [Example 5-MeO-DMT]
head-twitch response (HTR) (C57BL/6J Mice): produces a robust, dose-dependent head-twitch response | activation of the 5HT2A sensor assay (5HT2A sensor [1]): activate the 5HT2A sensor assay in agonist mode
